Results as given in patent US20080255085A1, “Novel Imidazo [4,5-b] Pyridine Derivatives as Inhibitors of Glycogen Synthase Kinase 3 for Use in the Treatment of Dementia and Neurodegenerative Disorders” (ASTRAZENECA AB, priority 2005, published 2008).
pKi: −log10 of the molar value. Structures can show the parent of a compound that is named as a salt.

Molecular target: T1, GSK3β (Homo sapiens, UniProt P49841)
T1 construct: purchased Dundee University, UK
Assay: GSK3β Scintillation Proximity Assay (ATP competition)
Assay type: biochemical
Settings: recombinant human GSK3; 1 μM ATP; Km of ATP 20 μM used to calculate Ki; 20 minutes at room temperature
Protocol: Determination of ATP Competition in Scintillation Proximity GSK3β Assay.
GSK3β Scintillation Proximity Assay.
The competition experiments were carried out in duplicate with 10 different concentrations of the inhibitors in clear-bottom microtiter plates (Wallac, Finland). A biotinylated peptide substrate, Biotin-Ala-Ala-Glu-Glu-Leu-Asp-Ser-Arg-Ala-Gly-Ser(PO3H2)-Pro-Gln-Leu (AstraZeneca, Lund), was added at a final concentration of 1 μM in an assay buffer containing 1 mU recombinant human GSK3 (Dundee University, UK), 12 mM morpholinepropanesulfonic acid (MOPS), pH 7.0, 0.3 mM EDTA, 0.01% β-mercaptorethanol, 0.004% Brij 35 (a […] detergent), 0.5% glycerol and 0.5 μg BSA/25 μl. The reaction was initiated by the addition of 0.04 μCi [γ-^33P]ATP (Amersham, UK) and unlabelled ATP at a final concentration of 1 μM and assay volume of 25 μl. After incubation for 20 minutes at room temperature, each reaction was terminated by the addition of 25 μl stop solution containing 5 mM EDTA, […] ATP, 0.1% Triton X-100 and 0.25 mg streptavidin coated Scintillation Proximity Assay (SPA) beads (Amersham, UK). After 6 hours the radioactivity was determined in a liquid scintillation counter (1450 MicroBeta Trilux, Wallac). The inhibition curves were analysed by non-linear regression using GraphPad Prism, USA. The Km value of ATP for GSK3β, used to calculate the inhibition constants (Ki) of the various compounds, was 20 μM.

T1 sequence (P49841 whole entry): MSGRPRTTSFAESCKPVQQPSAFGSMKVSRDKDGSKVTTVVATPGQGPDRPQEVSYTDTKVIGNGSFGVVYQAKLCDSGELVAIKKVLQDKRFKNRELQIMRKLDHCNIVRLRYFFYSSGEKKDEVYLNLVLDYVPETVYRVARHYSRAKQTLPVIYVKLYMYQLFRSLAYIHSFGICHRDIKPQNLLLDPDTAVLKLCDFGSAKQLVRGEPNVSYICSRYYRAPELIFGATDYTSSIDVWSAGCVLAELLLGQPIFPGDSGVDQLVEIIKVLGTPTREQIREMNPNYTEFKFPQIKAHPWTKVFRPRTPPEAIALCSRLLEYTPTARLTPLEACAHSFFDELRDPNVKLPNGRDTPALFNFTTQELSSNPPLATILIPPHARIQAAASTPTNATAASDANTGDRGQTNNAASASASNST

pKi | Structure (SMILES)
6.91 | COc1cccc(-c2ccnc3[nH]c(-c4ccc(S(=O)(=O)N5CCN(C)CC5)cc4)nc23)c1 [Example 2, 7-(3-Methoxyphenyl)-2-{4-[(4-methylpiperazin-1-yl)sulfonyl]phenyl}-3H-imidazo[4,5-b]pyridine hydrochloride]
7.51 | COc1ccc(-c2ccnc3[nH]c(-c4ccc(CN5CCCCC5)cc4)nc23)cc1 [Example 6, 7-(4-Methoxyphenyl)-2-[4-(piperidin-1-ylmethyl)phenyl]-3H-imidazo[4,5-b]pyridine hydrochloride]
7.36 | COc1ccc(-c2ccnc3[nH]c(-c4ccc(C(=O)NCCN5CCOCC5)cc4)nc23)cc1 [Example 7, 4-[7-(4-Methoxyphenyl)-3H-imidazo[4,5-b]pyridin-2-yl]-N-(2-morpholin-4-ylethyl)benzamide hydrochloride]
6.60 | CN1CCN(C(=O)c2ccc(-c3nc4c(-c5cccnc5)ccnc4[nH]3)cc2)CC1 [Example 9, 2-{4-[(4-Methylpiperazin-1-yl)carbonyl]phenyl}-7-pyridin-3-yl-3H-imidazo[4,5-b]pyridine hydrochloride]
